Measured values reported in paper PMC4327905 (Chemico-biological interactions, 2015).
Counter-ions that a name gives are not always drawn.

Each compound was assayed against T1, transthyretin (Homo sapiens, UniProt P02766) (assay: ANS fluorescence displacement).
Assay type: binding

SMILES | Kd [nM]
O=S(=O)(O)Oc1ccc(-c2ccc(Cl)cc2)c(Cl)c1 [4-PCB 8 sulfate, 2,4′-dichloro-4-sulfooxy-biphenyl] | 4.3

Each compound was assayed against T1, transthyretin (assay: acid-induced amyloid fibril formation, turbidity at […] nm, […] compound and […] TTR).
Assay type: biochemical

SMILES | Fibril Formation (%) [% fibril formation]
Oc1cccc(-c2ccc(Cl)cc2)c1 [3′-OHPCB 3, 4′-chloro-biphenyl-3-ol] | 52.3
O=S(=O)(O)Oc1cccc(-c2ccc(Cl)cc2)c1 [3′-PCB 3 sulfate, 4-chloro-3′-sulfooxy-biphenyl] | 30.7
Oc1ccc(-c2cccc(Cl)c2)cc1Cl [4-OHPCB 11, 3,3′-dichloro-biphenyl-4-ol] | 7.5
O=S(=O)(O)Oc1ccc(-c2cccc(Cl)c2)cc1Cl [4-PCB 11 sulfate, 3,3′-dichloro-4-sulfooxy-biphenyl] | 8.3
O=S(=O)(O)Oc1ccc(-c2ccc(Cl)c(Cl)c2)c(Cl)c1 [4-PCB 33 sulfate, 2,3′,4′-trichloro-4-sulfooxy-biphenyl] | 12.7
Oc1c(Cl)cc(-c2ccc(Cl)c(Cl)c2)cc1Cl [4′-OHPCB 79, 3,3′,4′,5-tetrachloro-biphenyl-4-ol, reference compound] | 32.2
O=S(=O)(O)Oc1ccc(-c2ccc(Cl)cc2)cc1 [4′-PCB 3 sulfate, 4-chloro-4′-sulfooxy-biphenyl] | 37.2
O=S(=O)(O)Oc1ccc(-c2cc(Cl)ccc2Cl)cc1Cl [4′-PCB 26 sulfate, 2,3′,5-trichloro-4′-sulfooxy-biphenyl] | 10.5
O=C(O)c1ccccc1Nc1cccc(C(F)(F)F)c1 [Flufenamic acid, reference compound] | 22.3
